This note sets out measurements from patent publication US12336981B2, “Compounds and compositions for the inhibition of NAMPT” (Valo Health, Inc., priority 2010, dated 2025).

pIC50: −log10 of the molar value. Read-outs that look alike come from different tables or passages of the source.

The subject of one test is A2780 cells. As to the kind of experiment: In-vitro cell proliferation assay (SRB), A2780 cells. The format is cell-based. Particulars: A2780 cells, 72 hours, read-out: A2780 IC50. In a few lines:
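Proliferation is assessed by sulforhodamine B staining following a 72-hour incubation with compound dilutions containing 0.1% DMSO.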

A further test has as its target T1, NAMPT (Homo sapiens, UniProt P43490).
T1 construct: His tag; host or cells: E. coli
Description: Biochemical inhibition assay: NAMPT enzymatic reaction, NMN quantified by mass spectrometry. The following applies: read-out: Biochem IC50. An outline of the steps:
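Inhibition of E. coli-expressed His-tagged human NAMPT, measured as NMN formation by mass spectrometry after a 30 min room-temperature reaction containing 1 μM NAM, 100 μM PRPP and 2.5 mM ATP.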

The mark [1] stands for this setting: Homo sapiens, A2780, 72 h, SRB assay.

T1 sequence (P43490 whole entry): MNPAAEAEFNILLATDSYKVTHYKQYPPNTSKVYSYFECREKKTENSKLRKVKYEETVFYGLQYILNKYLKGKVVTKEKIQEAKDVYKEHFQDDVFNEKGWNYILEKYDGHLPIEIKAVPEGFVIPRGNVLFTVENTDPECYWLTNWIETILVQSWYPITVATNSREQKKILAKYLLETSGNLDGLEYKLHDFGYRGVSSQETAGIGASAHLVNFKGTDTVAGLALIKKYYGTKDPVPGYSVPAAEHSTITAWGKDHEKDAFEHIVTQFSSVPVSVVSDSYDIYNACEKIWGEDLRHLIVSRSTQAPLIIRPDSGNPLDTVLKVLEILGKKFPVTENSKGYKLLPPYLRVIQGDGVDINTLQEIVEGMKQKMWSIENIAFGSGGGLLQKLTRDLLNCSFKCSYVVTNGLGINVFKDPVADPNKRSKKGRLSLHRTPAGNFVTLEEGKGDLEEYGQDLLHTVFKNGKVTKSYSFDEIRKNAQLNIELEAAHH

For the molecule `CS(=O)(=O)c1ccc(S(=O)(=O)c2ccc(CNC(=O)c3cnc4[nH]ncc4c3)cc2)cc1` [N-({4-[(4-methanesulfonylbenzene)sulfonyl]phenyl}methyl)-1H-pyrazolo[3,4-b]pyridine-5-carboxamide], the pIC50 in the test on A2780 cells (Homo sapiens, A2780, 72 h, SRB) was 7.62; at NAMPT (NAMPT enzymatic reaction), 7.53.
`Cc1ccc(Cl)c(S(=O)(=O)c2ccc(CNC(=O)c3cc4ccncc4o3)cc2)c1`: the pIC50 in the test on A2780 cells (Homo sapiens, A2780, 72 h, SRB) is 7.83; at NAMPT (NAMPT enzymatic reaction) it was 7.75.
On to `O=C(NCc1ccc(S(=O)(=O)c2nccs2)cc1)c1cc2ccncc2o1` [N-{[4-(1,3-thiazole-2-sulfonyl)phenyl]methyl}furo[2,3-c]pyridine-2-carboxamide], for which the pIC50 was 7.10 in the test on A2780 cells (Homo sapiens, A2780, 72 h, SRB) and 7.70 at NAMPT (NAMPT enzymatic assay).
For `O=C(NCc1ccc(S(=O)(=O)c2cccc(OC(F)(F)F)c2)cc1)c1cnc2nccn2c1`, the negative logarithm of the IC50 (pIC50) was 8.57 with A2780 cells (Homo sapiens, A2780, 72 h, SRB) and 8.60 on NAMPT (NAMPT enzymatic assay).
As to `CC(C)COc1cc(F)cc(S(=O)(=O)c2ccc(CNC(=O)c3cc4ccncc4s3)cc2)c1`, the pIC50 in the test with A2780 cells (Homo sapiens, A2780, 72 h, SRB) was 8.12; at NAMPT (NAMPT enzymatic assay), 8.32.
As to `O=C(NCc1ccc(S(=O)(=O)c2ccc(Cl)c(F)c2)cc1)c1cc2cnccc2[nH]1` [N-({4-[(4-chloro-3-fluorobenzene)sulfonyl]phenyl}methyl)-1H-pyrrolo[3,2-c]pyridine-2-carboxamide], the pIC50 is 7.89 with A2780 cells (setting [1]) and 8.10 on NAMPT (NAMPT enzymatic reaction).
As for `O=C(NCc1ccc(S(=O)(=O)c2ccc(F)cc2F)cc1)c1ccc2nccn2c1` [N-({4-[(2,4-difluorobenzene)sulfonyl]phenyl}methyl)imidazo[1,2-a]pyridine-6-carboxamide], the pIC50 was 7.55 in the test with A2780 cells (Homo sapiens, A2780, 72 h, SRB) and 7.55 on NAMPT (NAMPT enzymatic reaction).
As for `O=C(NCc1ccc(S(=O)(=O)c2cc(Cl)cc(C(F)(F)F)c2)cc1)c1cc2cnccc2[nH]1` [N-[(4-{[3-chloro-5-(trifluoromethyl)benzene]sulfonyl}phenyl)methyl]-1H-pyrrolo[3,2-c]pyridine-2-carboxamide], the pIC50 is 8.57 with A2780 cells (Homo sapiens, A2780, 72 h, SRB) and 7.70 on NAMPT (NAMPT enzymatic assay).
For the molecule `O=C(NCc1ccc(S(=O)(=O)c2ccccc2)cc1)c1cnc2nccn2c1` [N-{[4-(benzenesulfonyl)phenyl]methyl}imidazo[1,2-a]pyrimidine-6-carboxamide], the pIC50 in the test with A2780 cells (Homo sapiens, A2780, 72 h, SRB) was 7.24; on NAMPT (NAMPT enzymatic assay), 8.70.
In the case of `Cc1ccc(S(=O)(=O)c2ccc(CNC(=O)c3cc4ccncc4o3)cc2)cc1` [N-({4-[(4-methylbenzene)sulfonyl]phenyl}methyl)furo[2,3-c]pyridine-2-carboxamide], the pIC50 in the test with A2780 cells (Homo sapiens, A2780, 72 h, SRB) is 8.22; at NAMPT (NAMPT enzymatic reaction), 6.92.
As to `Cc1cnc(S(=O)(=O)c2ccc(CNC(=O)c3ccc4nccn4c3)cc2)n1C` [N-{[4-(1,5-dimethyl-1H-imidazole-2-sulfonyl)phenyl]methyl}imidazo[1,2-a]pyridine-6-carboxamide], the pIC50 in the test with A2780 cells (Homo sapiens, A2780, 72 h, SRB) is 7.14; at NAMPT (NAMPT enzymatic assay), 7.51.
Consider `Cc1cccc(S(=O)(=O)c2ccc(CNC(=O)c3cnc4[nH]ncc4c3)cc2)c1F`, for which the pIC50 in the test on A2780 cells (Homo sapiens, A2780, 72 h, SRB) is 7.62; at NAMPT (NAMPT enzymatic reaction) it was 7.71.
Regarding `CN(C)CCc1cccc(S(=O)(=O)c2ccc(CNC(=O)c3cc4cnccc4[nH]3)cc2)c1`, the pIC50 in the test on A2780 cells (Homo sapiens, A2780, 72 h, SRB) is 7.65; at NAMPT (NAMPT enzymatic assay), 7.53.
`Cc1cc(F)cc(S(=O)(=O)c2ccc(CNC(=O)c3cnc4nccn4c3)cc2)c1`: the pIC50 with A2780 cells (Homo sapiens, A2780, 72 h, SRB) is 8.27; at NAMPT (NAMPT enzymatic reaction), 8.82.
On to `O=C(NCc1ccc(S(=O)(=O)c2csc(-c3cccc(F)c3)n2)cc1)c1cnc2[nH]ncc2c1` [N-({4-[2-(3-fluorophenyl)-1,3-thiazole-4-sulfonyl]phenyl}methyl)-1H-pyrazolo[3,4-b]pyridine-5-carboxamide], for which the negative-log IC50 (pIC50) in the test on A2780 cells (Homo sapiens, A2780, 72 h, SRB) is 7.22; at NAMPT (NAMPT enzymatic assay), 7.57.
As to `COc1cc(F)c(F)cc1S(=O)(=O)c1ccc(CNC(=O)c2cnc3nccn3c2)cc1`, the pIC50 was 7.60 with A2780 cells (Homo sapiens, A2780, 72 h, SRB) and 7.92 at NAMPT (NAMPT enzymatic reaction).
On to `O=C(NCc1ccc(S(=O)(=O)N2CCCCC2)cc1)c1cc2ccncc2[nH]1` [N-{[4-(piperidine-1-sulfonyl)phenyl]methyl}-1H-pyrrolo[2,3-c]pyridine-2-carboxamide], for which the values for the pIC50 in the test with A2780 cells (setting [1]) and on NAMPT (NAMPT enzymatic reaction) were 7.27 and 8.40, respectively.
For `CCNC(=O)c1cccc(S(=O)(=O)c2ccc(CNC(=O)c3cnc4nccn4c3)cc2)c1`, the pIC50 with A2780 cells (Homo sapiens, A2780, 72 h, SRB) is 7.18; at NAMPT (NAMPT enzymatic assay), 8.51.
Turning to `Cc1ccc(Cl)c(S(=O)(=O)c2ccc(CNC(=O)c3cc4ccncc4o3)cc2)c1Cl`, the pIC50 was 7.79 in the test with A2780 cells (Homo sapiens, A2780, 72 h, SRB) and 7.97 at NAMPT (NAMPT enzymatic reaction).
On to `Cc1cc(S(=O)(=O)c2ccc(CNC(=O)c3cc4cnccc4[nH]3)cc2)ccc1F` [N-({4-[(4-fluoro-3-methylbenzene)sulfonyl]phenyl}methyl)-1H-pyrrolo[3,2-c]pyridine-2-carboxamide], for which the pIC50 in the test on A2780 cells (setting [1]) was 8.15; on NAMPT (NAMPT enzymatic reaction), 8.05.
Take `CCOc1ccc(S(=O)(=O)c2ccc(CNC(=O)c3ccc4nccn4c3)cc2)cc1F`: the pIC50 was 8.74 with A2780 cells (Homo sapiens, A2780, 72 h, SRB) and 7.90 at NAMPT (NAMPT enzymatic reaction).
`O=C(NCc1ccc(S(=O)(=O)c2cc(F)cc(N3CCCC3)c2)cc1)c1ccc2nccn2c1`: the pIC50 in the test on A2780 cells (Homo sapiens, A2780, 72 h, SRB) was 8.66; at NAMPT (NAMPT enzymatic assay), 8.41.
Regarding `COc1cc(S(=O)(=O)c2ccc(CNC(=O)c3ccc4nccn4c3)cc2)ccc1F`, the pIC50 is 8.17 with A2780 cells (Homo sapiens, A2780, 72 h, SRB) and 7.71 at NAMPT (NAMPT enzymatic reaction).
`Cn1ncc2cc(C(=O)NCc3ccc(S(=O)(=O)c4ccccc4)cc3)cnc21` [N-{[4-(benzenesulfonyl)phenyl]methyl}-1-methyl-1H-pyrazolo[3,4-b]pyridine-5-carboxamide]: the figures for the pIC50 in the test with A2780 cells (setting [1]) and at NAMPT (NAMPT enzymatic reaction) were less than 4.52 and 5.76, respectively.
`O=C(NCc1ccc(S(=O)(=O)c2cccnc2C(F)(F)F)cc1)c1cc2ccncc2o1` [N-({4-[2-(trifluoromethyl)pyridine-3-sulfonyl]phenyl}methyl)furo[2,3-c]pyridine-2-carboxamide]: the pIC50 is 7.55 with A2780 cells (Homo sapiens, A2780, 72 h, SRB) and 7.52 on NAMPT (NAMPT enzymatic assay).
Taken in the same sequence, the figures for `COc1cc(C(F)(F)F)ccc1S(=O)(=O)c1ccc(CNC(=O)c2ccc3nccn3c2)cc1` [N-[(4-{[2-methoxy-4-(trifluoromethyl)benzene]sulfonyl}phenyl)methyl]imidazo[1,2-a]pyridine-6-carboxamide] were 8.01 and 7.58.
Regarding `O=C(NCc1ccc(S(=O)(=O)c2ccc3c(c2)OCCO3)cc1)c1cc2ccncc2s1` [N-{[4-(2,3-dihydro-1,4-benzodioxine-6-sulfonyl)phenyl]methyl}thieno[2,3-c]pyridine-2-carboxamide], the pIC50 is 8.57 in the test on A2780 cells (setting [1]) and 8.40 at NAMPT (NAMPT enzymatic reaction).
`Cc1cn(C)c(S(=O)(=O)c2ccc(CNC(=O)c3ccc4nccn4c3)cc2)n1` [N-{[4-(1,4-dimethyl-1H-imidazole-2-sulfonyl)phenyl]methyl}imidazo[1,2-a]pyridine-6-carboxamide]: the pIC50 in the test with A2780 cells (Homo sapiens, A2780, 72 h, SRB) is 7.02; on NAMPT (NAMPT enzymatic assay), 6.00 to 7.00.
For `O=C(NCc1ccc(S(=O)(=O)c2cc(Cl)ccc2OCC(F)F)cc1)c1ccc2nccn2c1`, the pIC50 in the test on A2780 cells (Homo sapiens, A2780, 72 h, SRB) was 9.52; on NAMPT (NAMPT enzymatic assay) it was 8.70.
For `CC(C)c1ccc(S(=O)(=O)c2ccc(CNC(=O)c3cc4ccncc4s3)cc2)cc1` [N-[(4-{[4-(propan-2-yl)benzene]sulfonyl}phenyl)methyl]thieno[2,3-c]pyridine-2-carboxamide], the results for the pIC50 in the test on A2780 cells (setting [1]) and at NAMPT (NAMPT enzymatic reaction) were 8.15 and 8.22, respectively.
As for `O=C(NCc1ccc(S(=O)(=O)c2ccc(-n3cccn3)cc2F)cc1)c1cnc2[nH]ncc2c1`, the pIC50 in the test on A2780 cells (Homo sapiens, A2780, 72 h, SRB) is 7.46; at NAMPT (NAMPT enzymatic assay) it was 7.41.
Regarding `CCc1ccc(S(=O)(=O)c2ccc(CNC(=O)c3cc4cnccc4[nH]3)cc2)cc1` [N-({4-[(4-ethylbenzene)sulfonyl]phenyl}methyl)-1H-pyrrolo[3,2-c]pyridine-2-carboxamide], the pIC50 was 7.92 in the test with A2780 cells (setting [1]) and 8.10 on NAMPT (NAMPT enzymatic reaction).
Consider `Cc1cccc(S(=O)(=O)c2ccc(CNC(=O)c3cnc4nccn4c3)cc2)c1`, for which the pIC50 in the test with A2780 cells (Homo sapiens, A2780, 72 h, SRB) was 8.04; at NAMPT (NAMPT enzymatic reaction), 8.72.
On to `COc1cc(S(=O)(=O)c2ccc(CNC(=O)c3cnc4[nH]ncc4c3)cc2)ccc1C` [N-({4-[(3-methoxy-4-methylbenzene)sulfonyl]phenyl}methyl)-1H-pyrazolo[3,4-b]pyridine-5-carboxamide], for which the pIC50 is 8.47 in the test on A2780 cells (Homo sapiens, A2780, 72 h, SRB) and 8.44 on NAMPT (NAMPT enzymatic reaction).
Regarding `O=C(NCc1ccc(S(=O)(=O)c2ccc(F)cc2)cc1)c1cc2ccncc2s1` [N-({4-[(4-fluorobenzene)sulfonyl]phenyl}methyl)thieno[2,3-c]pyridine-2-carboxamide], the values for the pIC50 in the test with A2780 cells (setting [1]) and on NAMPT (NAMPT enzymatic reaction) were 8.00 and 8.52, respectively.
For the molecule `O=C(NCc1ccc(S(=O)(=O)N2CCCCC2)cc1)c1cc2cnccc2s1` [N-{[4-(piperidine-1-sulfonyl)phenyl]methyl}thieno[3,2-c]pyridine-2-carboxamide], the negative logarithm of the IC50 (pIC50) was 5.00 in the test with A2780 cells (setting [1]) and 6.05 at NAMPT (NAMPT enzymatic reaction).
`O=C(NCc1ccc(S(=O)(=O)c2ccc(C(F)(F)F)c(F)c2)cc1)c1cc2ccncc2s1`: the pIC50 is 8.14 with A2780 cells (Homo sapiens, A2780, 72 h, SRB) and 8.06 on NAMPT (NAMPT enzymatic assay).
For `Cc1ccc(F)c(S(=O)(=O)c2ccc(CNC(=O)c3cnc4[nH]ncc4c3)cc2)c1`, the pIC50 in the test with A2780 cells (SRB) was 7.15; at NAMPT (NAMPT enzymatic reaction), 7.62.
`O=C(NCc1ccc(S(=O)(=O)c2cc(OC(F)(F)F)ccc2Cl)cc1)c1cc2cnccc2[nH]1` [N-[(4-{[2-chloro-5-(trifluoromethoxy)benzene]sulfonyl}phenyl)methyl]-1H-pyrrolo[3,2-c]pyridine-2-carboxamide]: the pIC50 with A2780 cells (Homo sapiens, A2780, 72 h, SRB) was 7.92; at NAMPT (NAMPT enzymatic assay), 7.27.
For `O=C(NCc1ccc(S(=O)(=O)c2cccc3c2oc2ccccc23)cc1)c1cnc2[nH]ncc2c1`, in that order: 8.12 and 7.68.
On to `COc1c(C)cc(S(=O)(=O)c2ccc(CNC(=O)c3cc4ccncc4o3)cc2)cc1C`, for which the pIC50 is 8.74 with A2780 cells (Homo sapiens, A2780, 72 h, SRB) and 8.25 at NAMPT (NAMPT enzymatic reaction).

By pIC50 is commonly meant the IC50 on a negative log10 scale, so that one unit is a factor of ten.
